Measurements as given in paper PMC4232510, “Identification of Functionally Important Residues of the Rat P2X4 Receptor by Alanine Scanning Mutagenesis of the Dorsal Fin and Left Flipper Domains” (PLoS ONE, 2014).
Changes are numbered by the printed parent chain.

Experiments:
Assay in all cases: whole-cell patch clamp, HEK293T cells expressing mutant
Assay type in all cases: cell-based
Settings in all cases: for relative responsiveness: 100 µM agonist 2 s, relative to ATP (100%)
rP2X4R T210A mutant = molecular target: T1, rP2X4R T210A mutant (Rattus norvegicus, UniProt P51577, T210A)
T1 construct: expressed in transfected cells; host or cells: HEK293T
T1 sequence (P51577 1-388 T210A): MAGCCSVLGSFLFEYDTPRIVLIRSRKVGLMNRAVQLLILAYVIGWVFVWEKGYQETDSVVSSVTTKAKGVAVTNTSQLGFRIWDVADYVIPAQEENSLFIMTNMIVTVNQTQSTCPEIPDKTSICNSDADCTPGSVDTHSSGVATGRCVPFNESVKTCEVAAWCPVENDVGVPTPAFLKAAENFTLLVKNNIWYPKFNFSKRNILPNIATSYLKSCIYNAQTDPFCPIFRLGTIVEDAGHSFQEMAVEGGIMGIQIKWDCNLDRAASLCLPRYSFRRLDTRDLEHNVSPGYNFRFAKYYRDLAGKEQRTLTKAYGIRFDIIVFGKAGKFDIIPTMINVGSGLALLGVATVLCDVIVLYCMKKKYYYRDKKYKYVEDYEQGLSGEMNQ

rP2X4R Y213A mutant = molecular target: T2, rP2X4R Y213A mutant (Rattus norvegicus, UniProt P51577, Y213A)
T2 construct: expressed in transfected cells; host or cells: HEK293T
T2 sequence (P51577 1-388 Y213A): T1 sequence (P51577 1-388 T210A) with A210T, Y213A

rP2X4R Y292A mutant = molecular target: T3, rP2X4R Y292A mutant (Rattus norvegicus, UniProt P51577, Y292A)
T3 construct: expressed in transfected cells; host or cells: HEK293T
T3 sequence (P51577 1-388 Y292A): T1 sequence (P51577 1-388 T210A) with A210T, Y292A

[1] = 100 µM ATP 60 s, biexponential fit
[2] = contribution of τdes2, 100 µM ATP 60 s
[3] = decay after removal of 1 or 3 µM ATP, 3 µM IVM
[4] = naïve receptors, 2–5 s application
[5] = 3 µM IVM 4-6 min vs IVM-untreated

Compound “2′(3′-O-(4-Benzoylbenzoyl)adenosine 5′-triphosphate [BzATP]” has a relative responsiveness (rP2X4R T210A mutant) of 23.9±3.2 %, a relative responsiveness (rP2X4R Y213A mutant) of 27.3±5.5% and a relative responsiveness (rP2X4R Y292A mutant) of 28.9±8.2%.

In the case of `CSc1nc(N)c2ncn([C@@H]3O[C@H](COP(=O)(O)OP(=O)(O)OP(=O)(O)O)[C@@H](O)[C@H]3O)c2n1` [2-MeS-ATP, 2-(Methylthio)adenosine 5′-triphosphate], the relative responsiveness (rP2X4R T210A mutant) is reported as 59.2±6.9%, the relative responsiveness (rP2X4R Y213A mutant) is reported as 63.8±16.4% and the relative responsiveness (rP2X4R Y292A mutant) is reported as 49.8±8.6%.

For `Nc1ncnc2c1ncn2[C@@H]1O[C@H](COP(=O)(O)OP(=O)(O)OP(=O)(O)O)[C@@H](O)[C@H]1O` [ATP], the τdes1 (rP2X4R T210A mutant; [1]) was 2.0 ± 0.3 s, the τdes2 (rP2X4R T210A mutant; [1]) was 14.4 ± 2.5 s and the Imax (rP2X4R T210A mutant; 100–1000 µM ATP) was 1.9 ± 0.2 nA. The “Imax+IVM” value (rP2X4R T210A mutant; ATP after 3 µM IVM 4-6 min) was 3.5 ± 0.6 nA, the “A2 /(A1+A2)” value (rP2X4R T210A mutant; [2]) was 52 ± 8% and the “τoff +IVM” value (rP2X4R T210A mutant; [3]) was 5.5 ± 0.4 s. For the same compound, the EC50 (rP2X4R T210A mutant; [4]) was 26 ± 2.6 µM, the τdes (rP2X4R T210A mutant; weighted, 100 µM ATP 60 s) was 8.9 ± 2.1 s and the τdes1 (rP2X4R Y213A mutant; [1]) was 3.0 ± 0.3 s. For the same compound, the τdes2 (rP2X4R Y213A mutant; [1]) was 12.4 ± 1.6 s, the Imax (rP2X4R Y213A mutant; 100–1000 µM ATP) was 2.2 ± 0.4 nA and the “Imax+IVM” value (rP2X4R Y213A mutant; ATP after 3 µM IVM 4-6 min) was 3.1 ± 0.2 nA. For the same compound, the “A2 /(A1+A2)” value (rP2X4R Y213A mutant; [2]) was 61 ± 6%, the “τoff +IVM” value (rP2X4R Y213A mutant; [3]) was 18 ± 4.3 s and the EC50 (rP2X4R Y213A mutant; [4]) was 6 ± 0.9 µM. For the same compound, the τdes (rP2X4R Y213A mutant; weighted, 100 µM ATP 60 s) was 8.5 ± 0.8 s, the τdes1 (rP2X4R Y292A mutant; [1]) was 1.9 ± 0.2 s and the τdes2 (rP2X4R Y292A mutant; [1]) was 15.8 ± 0.2 s. The Imax (rP2X4R Y292A mutant; 100–1000 µM ATP) was 1.9 ± 0.3 nA, the “Imax+IVM” value (rP2X4R Y292A mutant; ATP after 3 µM IVM 4-6 min) was 4.3 ± 0.3 nA and the “A2 /(A1+A2)” value (rP2X4R Y292A mutant; [2]) was 57 ± 3%. For the same compound, the “τoff +IVM” value (rP2X4R Y292A mutant; [3]) was 11 ± 1.2 s, the EC50 (rP2X4R Y292A mutant; [4]) was 7.2 ± 1.9 µM and the τdes (rP2X4R Y292A mutant; weighted, 100 µM ATP 60 s) was 10 ± 1.5 s.

In the case of `Nc1ncnc2c1ncn2[C@@H]1O[C@H](CO[P@](=O)(O)O[P@](=O)(O)O[P@@](=O)(O)S)[C@@H](O)[C@H]1O` [ATPγS, Adenosine 5′-(γ-thio)triphosphate], the relative responsiveness (rP2X4R T210A mutant) is reported as 34.2±4.1 %, the relative responsiveness (rP2X4R Y213A mutant) is reported as 37.1±5.5% and the relative responsiveness (rP2X4R Y292A mutant) is reported as 42.3±7.0%.

`CC[C@H](C)[C@H]1O[C@]2(CC[C@@H]1C)C[C@@H]1C[C@@H](C/C=C(\C)[C@@H](O[C@H]3C[C@H](OC)[C@@H](O[C@H]4C[C@H](OC)[C@@H](O)[C@H](C)O4)[C@H](C)O3)[C@@H](C)/C=C/C=C3\CO[C@@H]4[C@H](O)C(C)=C[C@@H](C(=O)O1)[C@]34O)O2` [IVM, ivermectin] was tested, and the “Fold incr. Imax” value (rP2X4R T210A mutant; [5]) was 1.8 ± 0.2 fold, the “Fold incr. Imax” value (rP2X4R Y213A mutant; [5]) was 1.4 ± 0.1 fold and the “Fold incr. Imax” value (rP2X4R Y292A mutant; [5]) was 2.0 ± 0.3 fold.

`Nc1ncnc2c1ncn2C1OC(COP(=O)(O)CP(=O)(O)OP(=O)(O)O)C(O)C1O` (stereo not drawn) [α,β-meATP, α,β-methyleneadenosine 5′-triphosphate] gave a relative responsiveness (rP2X4R T210A mutant) of 8.8±2.3 %, a relative responsiveness (rP2X4R Y213A mutant) of 31.3±6.7% and a relative responsiveness (rP2X4R Y292A mutant) of 16.2±4.4 %.
